This is an account of results in ChEMBL document CHEMBL4665724, “Structure-activity relationship analysis of dammarane-type natural products as muscle-type creatine kinase activators” (Bioorg Med Chem Lett, 2020).

Calls of active or inactive are those of the source. The calls are words filed in the database; no cut-off is given here.

Experiment [1] has as its target Creatine kinase M-type (Homo sapiens) (UniProt P06732). The experiment in a line: Activation of human CK-MM assessed as increase in enzyme activity at 10 uM relative to control.
Experiment [2] shares this target. The experiment in a line: Activation of human CK-MM assessed as increase in enzyme activity at 20 uM relative to control.
Experiment [3] shares this target. The experiment in a line: Binding affinity to recombinant human His-tagged CK-MM at 20 uM by Biolayer Interferometry analysis.
Experiment [4] shares this target. The experiment in a line: Activation of human CK-MM assessed as increase in enzyme activity at 40 uM relative to control.
For experiment [5] the target is unchanged. The experiment in a line: Activation of human CK-MM assessed as increase in enzyme activity at 80 uM relative to control.
For experiment [6] the target is unchanged. The experiment in a line: Activation of human CK-MM assessed as increase in enzyme activity at 5 uM relative to control.
Experiment [7] has the same target. The experiment in a line: Activation of human CK-MM assessed as increase in enzyme activity at 5 to 80 uM. Conditions: dose microM 5-80.
The target in experiment [8] is Creatine kinase M-type (Oryctolagus cuniculus) (UniProt P00563). The experiment in a line: Binding affinity to rabbit CK-MM at 20 uM.
The target is the same in experiment [9]. The experiment in a line: Activation of rabbit CK-MM assessed as increase in enzyme activity at 5 to 80 uM. Conditions: dose microM 5-80.
For experiment [10] the target is unchanged. The experiment in a line: Activation of rabbit CK-MM assessed as increase in enzyme activity at 40 uM relative to control.
Experiment [11] shares this target. The experiment in a line: Activation of rabbit CK-MM assessed as increase in enzyme activity at 20 uM relative to control.
Experiment [12] has the same target. The experiment in a line: Activation of rabbit CK-MM assessed as increase in enzyme activity at 10 uM relative to control.
Experiment [13] has the same target. The experiment in a line: Activation of rabbit CK-MM assessed as increase in enzyme activity at 80 uM relative to control.

Chain of Creatine kinase M-type (Homo sapiens) (P06732 whole entry): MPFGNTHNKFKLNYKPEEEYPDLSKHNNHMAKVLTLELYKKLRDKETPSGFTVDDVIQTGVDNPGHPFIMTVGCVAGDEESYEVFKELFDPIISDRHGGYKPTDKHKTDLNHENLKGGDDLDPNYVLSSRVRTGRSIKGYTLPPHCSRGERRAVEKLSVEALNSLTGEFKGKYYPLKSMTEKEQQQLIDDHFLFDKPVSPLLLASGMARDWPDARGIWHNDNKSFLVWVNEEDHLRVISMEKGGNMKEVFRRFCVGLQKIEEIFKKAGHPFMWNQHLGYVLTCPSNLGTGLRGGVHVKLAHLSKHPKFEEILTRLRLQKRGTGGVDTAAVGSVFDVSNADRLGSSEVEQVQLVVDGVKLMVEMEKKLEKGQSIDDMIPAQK
Chain of Creatine kinase M-type (Oryctolagus cuniculus) (P00563 whole entry): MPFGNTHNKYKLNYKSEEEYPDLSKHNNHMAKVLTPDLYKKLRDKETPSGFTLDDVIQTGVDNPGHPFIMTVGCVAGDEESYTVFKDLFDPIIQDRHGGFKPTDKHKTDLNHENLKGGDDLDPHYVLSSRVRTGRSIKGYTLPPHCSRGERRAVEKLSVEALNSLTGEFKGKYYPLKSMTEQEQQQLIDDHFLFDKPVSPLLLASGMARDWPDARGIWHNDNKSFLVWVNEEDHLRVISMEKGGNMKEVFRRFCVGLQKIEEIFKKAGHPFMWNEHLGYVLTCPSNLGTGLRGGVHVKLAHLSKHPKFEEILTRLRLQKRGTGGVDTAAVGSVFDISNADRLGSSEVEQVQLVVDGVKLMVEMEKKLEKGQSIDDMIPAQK

Take `CC(C)=CCC[C@@](C)(O)[C@H]1CC[C@]2(C)[C@@H]1[C@H](O)C[C@@H]1[C@@]3(C)CC[C@H](O)C(C)(C)[C@@H]3CC[C@]12C`: the Activity in experiment [1] came out at 14.7%; in experiment [2], 23.5%; in [4] it was 14.3%; in [5] it was 10.2%; in experiment [6], 12.6%. Besides, in experiment [3] (filed as activator), the result was Active.

On to `CC1(C)[C@@H](O)CC[C@]2(C)[C@H]3C[C@@H](O)[C@@H]4[C@@H]([C@@](C)(O)CCC(=O)O)CC[C@@]4(C)[C@]3(C)CC[C@@H]12`, for which the Activity was 37.4% in [1]; 49.7% in experiment [2] (filed as activator); 49.8% in experiment [4] (filed as activator); “Dose-dependent effect” in experiment [7] (filed as activator); 52.1% in [5] (filed as activator); 37.6% in experiment [6]. For the same compound, the result in experiment [3] (filed as activator) was Active.

Turning to `CC(C)(O)CCC[C@](C)(O)[C@H]1CC[C@]2(C)[C@@H]1[C@H](O)C[C@@H]1[C@@]3(C)CC[C@H](O)C(C)(C)[C@@H]3CC[C@]12C`, the Activity in [1] worked out at 8.6%; in experiment [4], 7.5%; in experiment [5], 15.6%; in experiment [6], 17.3%. In addition, the result in [3] (filed as activator) was Active.

For the compound `CC(C)=CCC[C@](C)(O[C@@H]1O[C@H](CO)[C@@H](O)[C@H](O)[C@H]1O)[C@H]1CC[C@]2(C)[C@@H]1[C@H](O)C[C@@H]1[C@@]3(C)CC[C@H](O)C(C)(C)[C@@H]3[C@@H](O[C@@H]3O[C@H](CO)[C@@H](O)[C@H](O)[C@H]3O)C[C@]12C`, the outcome in experiment [8] and in experiment [9] was inactive.

Regarding `CC(C)(O)[C@H]1CC[C@@](C)([C@H]2CC[C@]3(C)[C@@H]2[C@H](O)C[C@@H]2[C@@]4(C)CC[C@H](O)C(C)(C)[C@@H]4CC[C@]23C)O1`, the outcome in experiment [3] and in experiment [7] was inactive.

For the compound `CC(C)=CCC[C@](C)(O)[C@H]1CC[C@]2(C)[C@@H]1[C@H](O)C[C@@H]1[C@@]3(C)CC[C@H](O[C@@H]4O[C@H](CO)[C@@H](O)[C@H](O)[C@H]4O)C(C)(C)[C@@H]3CC[C@]12C`, the outcome in experiment [8] (filed as activator) was Active. The results for the Activity in experiment [10] and in [11] were 3.5% and 3.1%, respectively.

As to `CC(C)=CCC[C@](C)(O[C@@H]1O[C@H](CO)[C@@H](O)[C@H](O)[C@H]1O)[C@H]1CC[C@]2(C)[C@@H]1[C@H](O)C[C@@H]1[C@@]3(C)CC[C@H](O[C@@H]4O[C@H](CO)[C@@H](O)[C@H](O)[C@H]4O[C@@H]4O[C@H](CO)[C@@H](O)[C@H](O)[C@H]4O)C(C)(C)[C@@H]3CC[C@]12C`, the result in experiment [8] and in experiment [9] was inactive.

As to `CC1(C)CCC[C@](C)([C@H]2CC[C@]3(C)[C@@H]2[C@H](O)C[C@@H]2[C@@]4(C)CC[C@H](O)C(C)(C)[C@@H]4[C@H](O)C[C@]23C)O1`, the outcome in experiment [3] and in experiment [7] was inactive.

With `CC(C)=CCC[C@](C)(O)[C@H]1CC[C@]2(C)[C@@H]1[C@H](O)C[C@@H]1[C@@]3(C)CC[C@H](O)C(C)(C)[C@@H]3CC[C@]12C`, the outcome in experiment [8] (filed as activator) and in [3] (filed as activator) was Active. Moreover, the Activity in [1] was 35.4%; in [2] it was 39.2%; in experiment [4] (filed as activator) it was 54.3%; in [10] it was 4.2%; in [12], 9.3%; in [7] (filed as activator) it was “Dose-dependent effect”. Besides, the results for the Activity in experiment [5] (filed as activator), in [11] and in experiment [6] were 53.2%, 4.3% and 29.6%, respectively.

With `CC(C)=CCC[C@](C)(O)[C@H]1CC[C@]2(C)[C@@H]1[C@H](O)C[C@@H]1[C@@]3(C)CC[C@H](O)C(C)(C)[C@@H]3[C@@H](O)C[C@]12C`, the outcome in experiment [8] (filed as activator) and in experiment [3] (filed as activator) was Active. The Activity was determined as 20.6% in [1]; 32.2% in [2]; 19.7% in [4]; 2.1% in experiment [13]; 3.4% in experiment [10]; 13.6% in experiment [5]. Besides, the Activity in [11] was 4.4%; in [6], 19.1%.

With `CC1(C)CCC[C@](C)([C@H]2CC[C@]3(C)[C@@H]2[C@H](O)C[C@@H]2[C@@]4(C)CC[C@H](O)C(C)(C)[C@@H]4CC[C@]23C)O1`, the Activity in experiment [2] was 7.1%; in experiment [4], 14.4%; in experiment [5] it was 15.4%. Further, the result in [3] (filed as activator) was Active.

As to `CC(C)=C[C@H]1C[C@](C)(O)[C@@H]2[C@H]3CC[C@@H]4[C@@]5(C)CC[C@H](O)C(C)(C)[C@@H]5CC[C@@]4(C)[C@@]34CO[C@@]2(C4)O1`, the results for the Activity in [1], in experiment [4] and in [6] were 11.9%, 5.7% and 16.9%, respectively. The outcome in [3] was inactive.
